For test [1], the system named is Connective Tissue Growth Factor (CTGF) gene expression. The test can be described thus: Real time quantitative PCR in TGFβ-stimulated human hepatic stellate cells (LX2) to detect CTGF gene expression. Type of test: cell-based. Particulars: CTGF mRNA in TGFβ-stimulated LX2 cells vs vehicle control; for inhibition at 1 µM: LX-2, 1 μM; for inhibition at 5 µM: LX-2, 5 μM; for inhibition at 10 µM: LX-2, 10 μM. The protocol:
Real Time Quantitative Polymerase Chain Reaction in Human Hepatic Stellate Cells (LX2) to Detect Connective Tissue Growth Factor (CTGF) Gene Expression The hepatic stellate cell line, LX2 was maintained in DMEM (LifeTechnologies) with 2% heat-inactivated FBS, 100U penicillin (LifeTechnologies), 0.1 mg/mL streptomycin (LifeTechnologies), and 2 mM L-glutamine (LifeTechnologies) at 37° C. with 5% CO2. Cells were seeded into 6-well plates (200,000 cells per well, 2 mLs media) and grown overnight. The cells were changed to 2 mLs 0.5% FBS media for 24 hours prior to treatment. Treatments were added in 2 mLs fresh 0.5% FBS media (vehicle control, long/mL TGFβ alone (R&D Systems), 10 ng/mL TGFβ+inhibitors) and incubated for 24 hours. […] RNA was extracted using Qiagen RNeasy kit (cat #74104), according to manufacturer's instructions. RNA (1 μg) was used to generate cDNA using the Qiagen Quantitect Reverse Transcription Kit (cat #205311), and stored at -20° C. cDNA was diluted (1:25 final) and combined with Sybr Green (Qiagen cat #204143), forward and reverse primers (50 ng each) and run on Real Time PCR Thermocycler machine (RG-6000, Corbett) with the following PCR conditions: Hold 1: 50° C. for 2 min; Hold 2: 95° C. for 15 min; Cycling: 45 cycles of: 95° C. for 30 sec, 58° C. for 21 sec, 72° C. for 15 sec, Hold 3: 72° C. for 30 sec, Melt: 72° C. to 99° C. GAPDH primers (Forward: [NT]; Reverse: [NT] primers (Forward: [NT]; Reverse: [NT] primers available from Origene, cat #HP205671)].

In test [2] the target is T1, Des1 (h) (Homo sapiens, UniProt O15121).
T1 construct: endogenous in cells; host or cells: parental Jurkat cells
T1 sequence (O15121 1-323): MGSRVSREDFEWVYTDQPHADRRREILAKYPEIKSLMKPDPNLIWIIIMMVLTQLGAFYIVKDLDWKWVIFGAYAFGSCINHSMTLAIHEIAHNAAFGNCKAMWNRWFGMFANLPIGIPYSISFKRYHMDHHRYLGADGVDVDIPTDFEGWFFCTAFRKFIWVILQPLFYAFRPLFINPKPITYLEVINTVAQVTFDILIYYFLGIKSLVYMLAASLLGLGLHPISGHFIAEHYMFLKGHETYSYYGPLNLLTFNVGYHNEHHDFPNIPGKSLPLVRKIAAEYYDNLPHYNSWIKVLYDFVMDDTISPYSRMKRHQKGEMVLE
The test is described as follows: Measurement of Dihydroceramide Desaturase-1 (Des-1) activity in intact Jurkat cells labeled with DhCer-C6-NBD (HPLC). Type of test: cell-based. Particulars: for IC50: intact Jurkat cells, given as concentration range, or <X / >X if measured at one concentration X only, read-out: Des1 (h) Jurkat IC50; for inhibition at 1 µM: Jurkat cells. The method, boiled down: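 Intact parental Jurkat cells in 0.5% serum medium were labelled with DhCer-C6-NBD; cells harvested at 500×g and ceramides extracted. NBD-labelled substrate and product resolved by C18 reverse-phase HPLC and quantified by fluorescence (ex 465/em 530 nm) as a measure of Des-1 activity.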

Broadly, the inhibition is the share of the control response that was lost under treatment. A low value points to little suppression. As a reminder, the IC50 is the concentration needed to halve the response being measured. Consider `N/C(=N\O)c1ccc(Nc2cnn(-c3ccc(C(F)(F)F)cn3)c2)cn1` [Example 72, N′-Hydroxy-5-((1-(5-(trifluoromethyl)pyridin-2-yl)-1H-pyrazol-4-yl)amino)picolinimidamide], for which, in test [1], the inhibition at 1 µM is 40 to 50% and the inhibition at 5 µM lay in the range of 50 to 60%. For the same compound, the half-inhibitory concentration (IC50) in test [2] is less than 1000 nM.

In test [1], `N/C(=N\O)c1ccc(Nc2ncc(-c3ccc(OC(F)(F)F)cc3)o2)cn1` [Compound 118, N′-Hydroxy-5-((5-(4-(trifluoromethoxy)phenyl)oxazol-2-yl)amino)picolinimidamide] registered an inhibition at 1 µM of 50 to 60% and an inhibition at 10 µM of 70 to 80%. Besides, in test [2], the IC50 is less than 1000 nM.

On to `N/C(=N\O)c1ncc(Nc2ncc(-c3ccc(C(F)(F)F)cc3)o2)cn1` [Example 55, N′-Hydroxy-5-((5-(4-(trifluoromethyl)phenyl)oxazol-2-yl)amino)pyrimidine-2-carboximidamide], for which, in test [1], the inhibition at 1 µM is 20 to 30% and the inhibition at 10 µM is 40 to 50%. Moreover, the IC50 in test [2] is less than 1000 nM.

`N/C(=N\O)c1cnc(Nc2ncn(-c3ccc(C(F)(F)F)cn3)n2)cn1` [Compound 108, N′-Hydroxy-5-((1-(5-(trifluoromethyl)pyridin-2-yl)-1H-1,2,4-triazol-3-yl)amino)pyrazine-2-carboximidamide]: in test [1], the inhibition at 5 µM is 40 to 50%. Further, in test [2], the IC50 is less than 1000 nM.

In test [1], `CN(O)C(=O)c1ccc(Nc2ncc(-c3ccc(C(F)(F)F)cc3)o2)cn1` [Example 20, N-Nydroxy-N-methyl-5-((5-(4-(trifluoromethyl)phenyl)oxazol-2-yl)amino)picolinamide] displayed an inhibition at 1 µM of 10 to 20% and an inhibition at 10 µM of 70 to 80%. For the same compound, the 50% inhibitory concentration (IC50) in test [2] is less than 100 nM.

In turn, `N/C(=N/O)c1ccc(Nc2cnn(-c3ccc(Cl)cn3)c2)cn1` [Compound 103, 5-((1-(5-Chloropyridin-2-yl)-1H-pyrazol-4-yl)amino)-N′-hydroxypicolinimidamide] came in with an inhibition at 5 µM in test [1] of 70 to 80%. For the same compound, in test [2], the IC50 is less than 1000 nM.

Compound `N/C(=N\O)c1ccc(Nc2nc(-c3ccc(OC(F)(F)F)cc3)no2)cn1` [Example 86, N′-Hydroxy-5-((3-(4-(trifluoromethoxy)phenyl)-1,2,4-oxadiazol-5-yl)amino)picolinimidamide] came in with an inhibition at 5 µM in test [1] of more than 90%. In test [2], the half-inhibitory concentration (IC50) was less than 1000 nM.

For `N/C(=N\O)c1ccc(Nc2nc(-c3ccc(C(F)(F)F)cn3)no2)cn1` [Example 84, N′-Hydroxy-5-((3-(5-(trifluoromethyl)pyridin-2-yl)-1,2,4-oxadiazol-5-yl)amino)picolinimidamide], the inhibition at 5 µM in test [1] was 80 to 90%. Moreover, in test [2], at 1 µM the inhibition was 45% and the IC50 was more than 1000 nM.

`N/C(=N/O)c1cnc(Nc2ncc(-c3ccc(OC(F)(F)F)cc3)o2)cn1` [Example 70, N′-Hydroxy-5-((5-(4-(trifluoromethoxy)phenyl)oxazol-2-yl)amino)pyrazine-2-carboximidamide] had an inhibition at 5 µM in test [1] of more than 90%. For the same compound, in test [2], the IC50 was less than 1000 nM.

Compound `N/C(=N\O)c1ccc(Nc2nc(-c3ccc(C(F)(F)F)cc3)no2)cn1` [Example 82, N′-hydroxy-5-((3-(4-(trifluoromethyl)phenyl)-1,2,4-oxadiazol-5-yl)amino)picolinimidamide] displayed an inhibition at 5 µM in test [1] of more than 90%. Besides, the IC50 in test [2] was less than 1000 nM.

`N/C(=N\O)c1ccc(Nc2ccn(-c3ccc(C(F)(F)F)cn3)n2)cn1` [Example 73, N′-Hydroxy-5-((1-(5-(trifluoromethyl)pyridin-2-yl)-1H-pyrazol-3-yl)amino)picolinimidamide]: the inhibition at 5 µM in test [1] is more than 90%. Also, the 50% inhibitory concentration (IC50) in test [2] was less than 1000 nM.

Regarding `N/C(=N\O)c1ccc(Nc2ncn(-c3ccc(C(F)(F)F)cc3)n2)cn1` [Example 24, N′-Hydroxy-5-((1-(4-(trifluoromethyl)phenyl)-1H-1,2,4-triazol-3yl)amino)picolinimidamide], the inhibition at 5 µM in test [1] fell in the range of 50 to 60%. Further, in test [2], the IC50 lay within 10 to 100 nM.

In turn, `N/C(=N/O)c1ccc(Nc2cc(-c3ccc(C(F)(F)F)cn3)no2)cn1` [Example 75, N′-Hydroxy-5-((3-(5-(trifluoromethyl)pyridin-2-yl)isoxazol-5-yl)amino)picolinimidamide] registered an inhibition at 5 µM in test [1] of more than 90%. In addition, the half-inhibitory concentration (IC50) in test [2] was less than 1000 nM.

In test [1], `N/C(=N\O)c1nnc(Nc2ncc(-c3ccc(C(F)(F)F)cc3)o2)cc1O` [Example 42, N′,4-Dihydroxy-6-((5-(4-(trifluoromethyl)phenyl)oxazol-2-yl)amino)pyridazine-3-carboximidamide] gave an inhibition at 1 µM of 10 to 20% and an inhibition at 10 µM of 40 to 50%. The IC50 in test [2] lay within 1 to 10 nM.

Compound `N/C(=N\O)c1ccc(Nc2ncc(-c3ccc(Cl)cn3)o2)cn1` [Compound 90, 5-((5-(5-Chloropyridin-2-yl)oxazol-2-yl)amino)-N′-hydroxypicolinimidamide] came in with an inhibition at 5 µM in test [1] of more than 90%. Besides, the 50% inhibitory concentration (IC50) in test [2] is less than 1000 nM.

In test [1], `N/C(=N\O)c1cnc(Nc2ncc(-c3ccc(C(F)(F)F)cc3)o2)cn1` [Example 54, N′-Hydroxy-5-((5-(4-(trifluoromethyl)phenyl)oxazol-2-yl)amino)pyrazine-2-carboximidamide] displayed an inhibition at 1 µM of 70 to 80% and an inhibition at 10 µM of 80 to 90%. In test [2], the IC50 lay in the range of 100 to 1000 nM.

On to `N/C(=N\O)c1cnc(Nc2ncn(-c3ccc(C(F)(F)F)cc3)n2)cn1` [Compound 106, N′-Hydroxy-5-((1-(4-(trifluoromethyl)phenyl)-1H-1,2,4-triazol-3-yl)amino)pyrazine-2-carboximidamide], for which the inhibition at 1 µM in test [1] lay in the range of 30 to 40%. For the same compound, in test [2], the half-maximal inhibitory concentration (IC50) was less than 1000 nM.

`N/C(=N/O)c1ccc(Nc2ncn(-c3ccc(C(F)(F)F)cn3)n2)cn1` [Compound 107, N′-Hydroxy-5-((1-(5-(trifluoromethyl)pyridin-2-yl)-1H-1,2,4-triazol-3-yl)amino)picolinimidamide] had an inhibition at 5 µM in test [1] of more than 90%. Further, the IC50 in test [2] is less than 1000 nM.

`N/C(=N\O)c1cnc(Nc2ccn(-c3ccc(C(F)(F)F)cc3)n2)cn1` [Compound 111, N′-Hydroxy-5-((1-(4-(trifluoromethyl)phenyl)-1H-pyrazol-3-yl)amino)pyrazine-2-carboximidamide]: in test [1], the inhibition at 5 µM was more than 90%. For the same compound, the IC50 in test [2] was less than 1000 nM.

`N/C(=N\O)c1ccc(Nc2cnn(-c3ccc(C(F)(F)F)cc3)c2)cn1` [Compound 113, N′-Hydroxy-5-((1-(4-(trifluoromethyl)phenyl)-1H-pyrazol-4-yl)amino)picolinimidamide]: in test [1], the inhibition at 5 µM was more than 90%. Besides, in test [2], the IC50 was less than 1000 nM.

In test [1], `N/C(=N\O)c1ccc(Nc2cc(-c3ccc(C(F)(F)F)cc3)no2)cn1` [Example 89, N′-hydroxy-5-((3-(4-(trifluoromethyl)phenyl)isoxazol-5-yl)amino)picolinimidamide] gave an inhibition at 5 µM of more than 90%. In addition, the IC50 in test [2] was less than 1000 nM.

In test [1], `N/C(=N\O)c1ccc(Nc2ncc(-c3ccc(C4CC4)cc3)o2)cn1` [Compound 120, 5-((5-(4-Cyclopropylphenyl)oxazol-2-yl)amino)-N′-hydroxypicolinimidamide] gave an inhibition at 1 µM of 40 to 50% and an inhibition at 10 µM of 40 to 50%. Besides, in test [2], at 1 µM the inhibition was 10% and the IC50 was more than 1000 nM.

These data come from patent US12448371B2, “Inhibitor compounds” (Cincera Therapeutics Pty Ltd, priority 2019, dated 2025).
